Experimental findings from patent publication US20100004222A1, “Amide Derivatives as Ion-Channel Ligands and Pharmaceutical Compositions and Methods of Using the Same” (Renovis, Inc., priority 2006, published 2010) are described below.

Entries after “also recorded” stand apart in the source; their conditions may differ. Some results are limits rather than exact numbers.

The target in data set [1] is T1, VR1 (Homo sapiens, UniProt Q8NER1). Put plainly: Calcium uptake assay, capsaicin agonist (high throughput calcium imaging). The format is cell-based. More on the design: expressed in transfected cells; host or cells: T-REx HEK 293 (Invitrogen), pcDNA5/TO vector. Particulars: 3 nM; FIGS. 2-6.
Target sequence in this assay (Q8NER1 whole entry): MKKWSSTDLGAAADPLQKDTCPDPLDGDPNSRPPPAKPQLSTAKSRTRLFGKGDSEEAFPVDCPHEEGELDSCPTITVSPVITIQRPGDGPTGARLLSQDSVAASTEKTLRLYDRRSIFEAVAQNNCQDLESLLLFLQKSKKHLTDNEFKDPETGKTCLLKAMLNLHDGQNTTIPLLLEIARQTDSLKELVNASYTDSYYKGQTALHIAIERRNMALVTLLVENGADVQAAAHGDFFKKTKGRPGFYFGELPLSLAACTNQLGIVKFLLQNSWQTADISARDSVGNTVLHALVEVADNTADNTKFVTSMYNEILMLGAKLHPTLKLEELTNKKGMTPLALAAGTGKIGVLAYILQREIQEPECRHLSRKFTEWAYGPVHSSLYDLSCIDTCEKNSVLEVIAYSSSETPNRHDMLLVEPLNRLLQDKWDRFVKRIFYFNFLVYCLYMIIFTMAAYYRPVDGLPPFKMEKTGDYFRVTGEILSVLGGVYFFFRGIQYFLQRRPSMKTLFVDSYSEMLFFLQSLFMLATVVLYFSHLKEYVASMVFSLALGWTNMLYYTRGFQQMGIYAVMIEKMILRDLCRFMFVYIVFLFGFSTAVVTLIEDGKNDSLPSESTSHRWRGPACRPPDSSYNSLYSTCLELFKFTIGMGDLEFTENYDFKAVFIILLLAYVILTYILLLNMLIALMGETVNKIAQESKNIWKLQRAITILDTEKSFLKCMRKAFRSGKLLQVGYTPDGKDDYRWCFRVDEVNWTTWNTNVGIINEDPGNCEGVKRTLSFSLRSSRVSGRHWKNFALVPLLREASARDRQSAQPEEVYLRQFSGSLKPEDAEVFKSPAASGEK
A short description of data set [2]: Pharmacokinetic evaluation following intravenous and oral administration in rats. The format is in vivo. Particulars: male, Sprague-Dawley, plasma, rat; for clearance: non-compartmental analysis, read-out: In vivo Clearance (converted); for bioavailability: AUCinf (PO)/AUCinf (IV), dose normalized, PO 5 mg/kg, read-out: Oral Bioavailability F (%). Here is the method: Male Sprague-Dawley rats are acclimatized for at least 24 hours prior to experiment initiation. During acclimation period, all animals receive food and water ad libitum. However, food but not water is removed from the animal's cages at least 12 hours before initiation of the experiment. During the first 3 hours of experimentation, the animals receive only water ad libitum. At least three animal each are tested for intravenous and oral dosage. For intravenous formulation, compounds were dissolved (0.25 to 1 mg/mL) in a mixture of 3% dimethyl sulfoxide, 40% PEG 400 and the rest percentage of 40% Captisol in water (w/v). For oral formulation, compounds of this invention are dissolved (2 mg/mL) in a mixture of 5% of 10% Tween 80 in water (v/v) and 95% of 0.5% methyl cellulose in water (w/v). The animals are weighed before dosing. The determined body weight is used to calculate the dose volume for each animal.
Dose volume(mL/kg)=1 mg/kg/formulation concentration(mg/mL)
In instances where the formulation concentrations were less than 0.5 mg/mL, the dosing volume is about 2 mL/kg. PO rats are typically dosed through oral gavage at 2.5 mL/kg to achieve a dose level of 5 mg/kg. For IV dosing, blood samples are collected (using a pre-heparinized syringe) via the jugular vein catheter at 2, 5, 15, 30, 60, 120, 180, 300, 480, and 1440 minutes post dosing. For PO dosing, blood samples are collected (using a pre-heparinized syringe) via the jugular vein catheter before dosing and at 5, 15, 30, 60, 120, 180, 300, 480, and 1440 minutes post dosing. About 250 uL of blood is obtained at each time point from the animal. Equal volumes of 0.9% normal saline are replaced to prevent dehydration. The whole blood samples are maintained on ice until centrifugation. Blood samples are then centrifuged at 14,000 rpm for 10 minutes at 4° C. and the upper plasma layer transferred into a clean vial and stored at −80° C. The resulting plasma samples are then analyzed by liquid chromatography-tandem mass spectrometry. Following the measurement of plasma samples and dosing solutions, plasma concentration-time curve is plotted. Plasma exposure is calculated as the area under the concentration-time curve extrapolated to time infinite (AUCinf). The AUCinf is averaged and the oral bioavailability (% F) for individual animal is calculated as:
AUCinf (PO)/AUCinf (IV), normalized to their respective dose levels. The % F is reported as the mean % F of all animals dosed orally with the compound of the invention at the specified level (Table 6).
In vivo clearance in the rat was calculated by conducting a non-compartmental analysis of the pharmacokinetic profile using WinNonlin software.

In a further data set the test system is VR1 receptor. Kind of data set: Calcium imaging assay in DRG neurons (capsaicin). In kind it is cell-based. Particulars: 3 nM, FIG. 1. The method, then:
Therefore the functional activity of compounds at the VR1 receptor may be determined by measuring changes in intracellular calcium levels in neurons such as the dorsal root ganglion. […] Prior to assay, cells were loaded with 5 μg/ml Fura2 in normal saline solution at 37° C. for 40 minutes. Cells were then washed with normal saline to remove dye before commencement of the experiment. The plated neurons were transferred into a chamber on the stage of a Nikon eclipse TE300 microscope after which neurons were allowed to attain a stable fluorescence for about 10 minutes before beginning the experiment. The assay consists of two stages, a pretreatment phase followed by a treatment phase. First, a solution of the test compound was added from a multivalve perfusion system to the cells for 1 minute (pretreatment). […] Fura2 was excited at […] to indicate relative calcium ion concentration. Changes in wavelength measurements were made throughout the course of the experiment. The fluorescence ratio was calculated by dividing fluorescence measured at 340 nm by that at 380 nM. Data were collected using Intelligent Imaging's Slidebook software.

Data set [3] relates to Dorsal root ganglion (DRG) neurons. Kind of data set: Whole-cell patch clamp electrophysiology. The settings on record: Rattus norvegicus, DRG neuron, read-out: % inhibition of capsaicin induced current. In kind it is cell-based. Here is the method: Dorsal root ganglion (DRG) neurons were recovered from either neonatal or adult rats and plated onto poly-D-lysine coated glass coverslips. The plated neurons were transferred into a chamber to allow drug solutions to be added to the cells using a computer-controlled solenoid-valve based perfusion system. The cells were imaged using standard DIC optics. Cells were patched using finely-pulled glass electrodes. Voltage-clamp electrophysiology experiments were carried out using an Axon Instruments Multiclamp amplified controlled by pCLAMP8 software.
On the technique in general: In patch-clamp work, channel activity is measured electrically.

The target in data set [4] is T1, VR1. Put plainly: Acid stimulation assay (FDSS 6000). The settings on record: final assay buffer pH5.8, 15 min pre-incubation. The format is cell-based. Here is the method:
The Acid-induced changes in the intracellular calcium concentration were monitored using FDSS 6000 (Hamamatsu Photonics, Japan), a fluorometric imaging system. The cell suspension in resting buffer (HBSS supplemented with 10 mM HEPES, pH 7.4) was pre-incubated with varying concentrations of the test compounds or resting buffer (buffer control) for 15 minutes at room temperature under dark conditions. The cells were automatically added the stimulating solution (HBSS supplemented with MES, final assay buffer pH5.8) by the FDSS 6000.
Target sequence in this assay (Q8NER1 whole entry, species assumed): as the sequence (Q8NER1 whole entry) above

Data set [5] in a line: Half-life in human liver microsomes (HLM). In kind it is in vitro ADME. Particulars: pH 7.4, 1 μM compound, 0.78 mg/mL HLM, 37° C. The method, then:
Test compounds (1 μM) are incubated with 3.3 mM MgCl2 and 0.78 mg/mL HLM (HL101) in 100 mM potassium phosphate buffer (pH 7.4) at 37° C. on the 96-deep well plate. The reaction mixture is split into two groups, a non-P450 and a P450 group. NADPH is only added to the reaction mixture of the P450 group. An aliquot of samples of P450 group is collected at 0, 10, 30, and 60 min time point, where 0 min time point indicated the time when NADPH is added into the reaction mixture of P450 group. An aliquot of samples of non-P450 group is collected at −10 and 65 min time point. Collected aliquots are extracted with acetonitrile solution containing an internal standard. The precipitated protein is spun down in centrifuge (2000 rpm, 15 min). The compound concentration in supernatant is measured by LC/MS/MS system.
The half-life value is obtained by plotting the natural logarithm of the peak area ratio of compounds/internal standard versus time. The slope of the line of best fit through the points yields the rate of metabolism (k). This is converted to a half-life value using following equations: […]
Background: Liver microsomes are vesicles of endoplasmic reticulum, rich in cytochrome P450 enzymes.

In data set [6] the target is T1, VR1. Put plainly: Calcium uptake assay, low pH (proton) agonist. In kind it is cell-based. More on the design: expressed in transfected cells; host or cells: T-REx HEK 293 (Invitrogen), pcDNA5/TO vector. Particulars: HEK293; 0.3 μM compound; low pH (protons) as agonist; HEK 293 cells expressing hVR1; read-out: Low pH % Inhib. @ 0.3 μM.
Target sequence in this assay (Q8NER1 whole entry): as above

As to `C/C(=C\C(F)(F)F)c1ccc(C(=O)Nc2ccc3c(c2)OCCN3)cc1` [Compound 96], the “inhibition of the Capsaicin induced intracellular calcium response” value on VR1 [1] is listed as “significant inhibition”.
With `O=C(Nc1cccc2cnccc12)c1ccc(C#CC(F)(F)F)cc1` [Compound 45], the “inhibition of the Capsaicin induced intracellular calcium response” value on VR1 [1] is “significant inhibition”.
Take `Cc1cc(C#CC(C)(C)C)ccc1C(=O)Nc1ccc2c(c1)OCC(CO)N2` (stereo not drawn) [Compound 167]: the “inhibition of the Capsaicin induced intracellular calcium response” value at VR1 [1] is given as “significant inhibition”.
For `Cc1cc(/C=C/C(F)(F)F)ccc1C(=O)Nc1ccc2sc(CO)nc2c1` [Compound 225], the clearance in data set [2] was 1.52 mL/min/kg. Also, the “inhibition of the Capsaicin induced intracellular calcium response” value in the data set with VR1 receptor is listed as “reduced; also recorded: significant inhibition”.
Turning to `COc1cc(NC(=O)c2ccc(/C=C/C(C)C)cc2)cc(C(F)(F)F)c1` [Compound 240], the inhibition at 0.1 µM in data set [3] was 50%.
The term IC50 denotes the concentration needed to halve the response being measured. A lower IC50 goes with higher potency. A word on the half-life: it is the time needed for the level to fall by half in the phase considered. A high value points to slow decline. As usually defined, the bioavailability is the share of a dose that reaches the circulation, judged against a reference dose that is usually intravenous. `Cc1cc(/C=C/C(F)(F)F)ccc1C(=O)Nc1ccc2cc(C(C)O)cnc2c1` (stereo not drawn) [Compound 304, (E)-N-(3-(1-hydroxyethyl)quinolin-7-yl)-2-methyl-4-(3,3,3-trifluoroprop-1-enyl)benzamide] gave a half-inhibitory concentration (IC50) against VR1 [4] of 4 nM. The molecule further gave a half-life at 1 μM in data set [5] of 51 min. In data set [2], the bioavailability is above 100% and the clearance is 20.6 mL/min/kg. Besides, at VR1 [6], the inhibition at 0.3 µM turned out to be 98%.
As for `Cc1cc(/C=C/C(F)(F)F)ccc1C(=O)Nc1cnc2ccccc2c1` [Compound 187, 2-Methyl-N-quinolin-3-yl-4-((E)-3,3,3-trifluoro-propenyl)-benzamide], in data set [2], the bioavailability was found to be 43% and the clearance is 1.83 mL/min/kg. The “inhibition of the Capsaicin induced intracellular calcium response” value on VR1 [1] is given as “significant inhibition”.
Regarding `Cc1cc(/C=C/C(F)(F)F)ccc1C(=O)Nc1ccc2cc(C(O)CO)cnc2c1` (stereo not drawn) [Compound 308, (E)-N-(3-(1,2-dihydroxyethyl)quinolin-7-yl)-2-methyl-4-(3,3,3-trifluoroprop-1-enyl)benzamide], on VR1 [4], the IC50 stood at 11 nM. Besides, the half-life at 1 μM in data set [5] is 63 min. In addition, in data set [2], the bioavailability came to 71% and the clearance was 12.2 mL/min/kg. Besides, the inhibition at 0.3 µM on VR1 [6] stood at 101%.
For the molecule `Cc1cc(/C=C/C(F)(F)F)ccc1C(=O)Nc1ccc2cc(COCCO)cnc2c1` [Compound 305, (E)-N-(3-((2-Hydroxyethoxy)methyl)quinolin-7-yl)-2-methyl-4-(3,3,3-trifluoroprop-1-enyl)benzamide], half-maximal inhibition against VR1 [4] (IC50) was put at 12 nM. The molecule also had a half-life at 1 μM in data set [5] of 16.8 min. Also, in data set [2], the bioavailability was above 100% and the clearance is 11.2 mL/min/kg. Also, at VR1 [6], the inhibition at 0.3 µM was 105%.
On VR1 [4], `Cc1cc(/C=C/C(F)(F)F)ccc1C(=O)Nc1cccc2c1CC(O)CC2` (racemic) [Compound 309, (E)-N-(7-hydroxy-5,6,7,8-tetrahydronaphthylen-1-yl)-2-methyl-4-(3,3,3-trifluoroprop-1-enyl)benzamide] displayed an IC50 of 2 nM. The same molecule gave a half-life at 1 μM in data set [5] of 135 min. In addition, in data set [2], the bioavailability is 29% and the clearance was 7.68 mL/min/kg. In addition, at VR1 [6], the inhibition at 0.3 µM was determined as 107%.
For `Cc1cc(/C=C/C(F)(F)F)ccc1C(=O)Nc1cnc2c(c1)OCC(CO)N2` (stereo not drawn) [Compound 233], in data set [2], the bioavailability was found to be 54% and the clearance was 33.3 mL/min/kg. The “inhibition of the Capsaicin induced intracellular calcium response” value on VR1 [1] was “significant inhibition”.
`Cc1cc(/C=C/C(F)(F)F)ccc1C(=O)Nc1cnc2sc(CO)nc2c1` [Compound 413, (E)-N-(2-(hydroxymethyl)thiazolo[5,4-b]pyridin-6-yl)-2-methyl-4-(3,3,3-trifluoroprop-1-enyl)benzamide] showed a half-inhibitory concentration (IC50) against VR1 [4] of 4 nM. Further, the half-life at 1 μM in data set [5] is 193 min. In data set [2], the bioavailability was above 100% and the clearance is 3.83 mL/min/kg. The inhibition at 0.3 µM at VR1 [6] came out at 110%.
`Cc1cc(/C=C/C(F)(F)F)ccc1C(=O)Nc1cnc2cc(CO)cnc2c1` [Compound 317, (E)-N-(7-(Hydroxymethyl)-1,5-naphthyridin-3-yl)-2-methyl-4-(3,33-trifluoroprop-1-enyl)benzamide]: the IC50 at VR1 [4] worked out at 11 nM. In data set [5], the half-life at 1 μM was 37.2 min. For the same molecule, in data set [2], the bioavailability worked out at 47% and the clearance was 16.5 mL/min/kg. Further, the inhibition at 0.3 µM on VR1 [6] is 100%.
